Results as given in ChEMBL document CHEMBL1138912, “Dipeptidyl nitriles as human dipeptidyl peptidase I inhibitors” (Bioorg Med Chem Lett, 2006).
Active and inactive are the calls of the source. The rule behind the calls is not given here.

Assays:
[1] = molecular target: T1, Dipeptidyl peptidase 1 (Homo sapiens, UniProt P53634); experiment: Inhibition of human DPP1
[2] = Metabolic stability in rat liver microsomes after 15 min; assay type: ADME, Microsome; conditions: read-out: Stability
[3] = molecular target: T2, Pro-cathepsin H (Homo sapiens, UniProt P09668); experiment: Inhibition of Cathepsin H
T2 sequence (P09668 whole entry): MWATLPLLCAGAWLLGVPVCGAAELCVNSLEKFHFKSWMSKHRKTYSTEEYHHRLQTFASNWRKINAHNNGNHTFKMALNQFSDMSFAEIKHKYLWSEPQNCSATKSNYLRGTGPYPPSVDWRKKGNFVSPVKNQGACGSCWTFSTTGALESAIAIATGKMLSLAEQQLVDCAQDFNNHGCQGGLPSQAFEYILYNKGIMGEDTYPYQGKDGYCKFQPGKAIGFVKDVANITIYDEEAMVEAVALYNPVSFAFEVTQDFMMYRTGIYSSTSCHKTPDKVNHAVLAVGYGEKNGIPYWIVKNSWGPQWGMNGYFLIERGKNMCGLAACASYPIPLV

[4] = molecular target: Cytochrome P450 2C9 (Homo sapiens, UniProt P11712); experiment: Inhibition of CYP2C9; assay type: ADME
[5] = molecular target: Cathepsin B (Homo sapiens, UniProt P07858); experiment: Inhibition of Cathepsin B
[6] = molecular target: Procathepsin L (Homo sapiens, UniProt P07711); experiment: Inhibition of Cathepsin L
[7] = molecular target: Cytochrome P450 2C19 (Homo sapiens, UniProt P33261); experiment: Inhibition of CYP2C19; assay type: ADME
[8] = molecular target: T1, Dipeptidyl peptidase 1; experiment: Residual activity at human DPP1 at 10 uM
[9] = molecular target: T1, Dipeptidyl peptidase 1; experiment: Inhibition of human DPP1 at 20 uM

T1 sequence (P53634 25-134 limits assumed): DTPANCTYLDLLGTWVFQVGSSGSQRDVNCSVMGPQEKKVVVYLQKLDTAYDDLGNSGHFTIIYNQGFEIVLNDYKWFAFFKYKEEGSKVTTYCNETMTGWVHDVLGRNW
T1 sequence (P53634 231-394 limits assumed): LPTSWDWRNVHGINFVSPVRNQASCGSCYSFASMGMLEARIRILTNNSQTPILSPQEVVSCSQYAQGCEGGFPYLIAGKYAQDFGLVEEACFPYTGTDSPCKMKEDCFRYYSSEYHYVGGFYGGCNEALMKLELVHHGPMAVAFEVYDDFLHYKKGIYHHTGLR
T1 sequence (P53634 395-463 limits assumed): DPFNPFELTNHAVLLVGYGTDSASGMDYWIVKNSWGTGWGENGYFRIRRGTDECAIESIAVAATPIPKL
Procathepsin L, sequence (P07711 whole entry): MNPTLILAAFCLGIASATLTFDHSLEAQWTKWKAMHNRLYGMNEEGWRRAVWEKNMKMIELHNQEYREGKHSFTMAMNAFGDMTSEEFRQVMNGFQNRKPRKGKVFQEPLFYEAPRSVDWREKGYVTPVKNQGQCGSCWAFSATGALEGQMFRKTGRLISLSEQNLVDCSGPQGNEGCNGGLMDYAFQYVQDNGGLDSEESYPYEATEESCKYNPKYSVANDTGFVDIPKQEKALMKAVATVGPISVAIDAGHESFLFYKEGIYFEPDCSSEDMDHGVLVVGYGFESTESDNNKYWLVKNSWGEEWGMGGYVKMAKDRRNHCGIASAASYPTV
Cytochrome P450 2C19, sequence (P33261 whole entry): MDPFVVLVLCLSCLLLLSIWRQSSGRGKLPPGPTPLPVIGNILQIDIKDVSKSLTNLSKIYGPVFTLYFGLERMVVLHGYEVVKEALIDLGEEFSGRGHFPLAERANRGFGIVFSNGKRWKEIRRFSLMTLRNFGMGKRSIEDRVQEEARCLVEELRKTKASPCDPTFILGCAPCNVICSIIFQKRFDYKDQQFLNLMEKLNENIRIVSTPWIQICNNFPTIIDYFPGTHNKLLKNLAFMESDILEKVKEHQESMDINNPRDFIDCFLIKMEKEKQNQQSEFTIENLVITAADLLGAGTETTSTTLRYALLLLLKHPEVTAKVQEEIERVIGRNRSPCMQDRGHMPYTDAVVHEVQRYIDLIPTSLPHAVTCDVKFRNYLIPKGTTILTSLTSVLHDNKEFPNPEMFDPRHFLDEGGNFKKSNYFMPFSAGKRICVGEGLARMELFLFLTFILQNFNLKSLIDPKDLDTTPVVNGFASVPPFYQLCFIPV
Cytochrome P450 2C9, sequence (P11712 whole entry): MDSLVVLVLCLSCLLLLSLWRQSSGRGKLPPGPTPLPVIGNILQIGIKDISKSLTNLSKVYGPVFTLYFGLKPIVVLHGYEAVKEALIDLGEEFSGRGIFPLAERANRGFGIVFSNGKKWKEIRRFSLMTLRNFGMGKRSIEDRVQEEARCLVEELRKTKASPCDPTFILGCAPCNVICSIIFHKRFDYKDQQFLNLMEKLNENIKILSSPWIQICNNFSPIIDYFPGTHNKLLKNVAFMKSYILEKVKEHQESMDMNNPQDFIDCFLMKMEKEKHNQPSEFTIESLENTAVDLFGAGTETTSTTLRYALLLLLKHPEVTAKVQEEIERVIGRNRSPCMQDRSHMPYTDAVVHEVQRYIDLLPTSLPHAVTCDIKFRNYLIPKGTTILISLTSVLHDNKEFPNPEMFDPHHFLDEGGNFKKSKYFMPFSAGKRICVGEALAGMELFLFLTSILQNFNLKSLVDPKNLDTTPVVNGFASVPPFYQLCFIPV

IC50 [1]	remaining at 0.25 h [2]	Structure (SMILES)	further results
822 nM	74%	CC[C@H](N)C(=O)N[C@H](C#N)CCc1ccccc1	
137 nM		CC[C@H](N)C(=O)N[C@H](C#N)C/C=C/c1ccccc1	
		CC[C@H](N)C(=O)N[C@H](C#N)Cc1ccc(-c2ccccc2)cc1	IC50 [3]: > 10000 nM; IC50 [4]: > 20000 nM; IC50 [5]: > 10000 nM; IC50 [6]: > 10000 nM; IC50 [7]: > 20000 nM
4790 nM		N#C[C@H](Cc1ccccc1)NC(=O)CN	
172 nM	80%	CC[C@H](N)C(=O)N[C@H](C#N)Cc1ccccc1	
		CC[C@H](N)C(=O)N(C)[C@H](C#N)Cc1ccccc1	Activity [8]: 94%
6300 nM		N#CC(Cc1ccccc1)NC(=O)[C@@H](N)Cc1ccccc1 (single isomer, unassigned; isomer B)	
96 nM	70%	CC[C@H](N)C(=O)N[C@H](C#N)Cc1ccc(Cl)cc1	
294 nM		N#CC(Cc1ccccc1)NC(=O)[C@@H](N)Cc1ccccc1 (stereo in doubt)	
		N#C[C@H](Cc1ccccc1)N1CC[C@H](N)C1=O	inhibition [9]: inactive
9640 nM	39%	N#C[C@H](Cc1ccccc1)NC(=O)[C@@H]1CCCN1	
418 nM	45%	N#CC(Cc1ccccc1)NC(=O)[C@@H](N)Cc1ccccc1 (stereo in doubt; 8)	
